Like-named read-outs stand apart in the source and are kept apart here.
Experiments:
Format in all cases: binding, sheep
[1] = test system: Antibody to Immunogen III
Procedure: (§1) The wells of an enhanced binding 96 well polystyrene microtiter plate were coated with IgG fraction of antiserum raised to Immunogen VI, diluted in 10mM Tris, pH8.5 (125µl/well). The appropriate antibody coating dilution was determined using standard ELISA checkerboard techniques. The plate was incubated overnight at 4°C, washed 4 times over 10 minutes with Tris buffered saline containing Tween 20 (TBST) and tapped dry. Standard solutions of RCS-4 were prepared in TBST at 0, 0.3125, 0.625, 1.25, 2.5, 5, 10 and 20ng/ml, and 50µl of each was added to the appropriate wells (see figure 1). 75µl of conjugate (appropriate hapten-HRP) diluted in Tris buffer (pH 7.2) containing EDTA, D-mannitol, sucrose, thimerosal and BSA, was added to each of the wells. The appropriate dilution of conjugate was also determined using standard ELISA checkerboard techniques. The plate was incubated at 25°C for 1 hour. Excess unbound conjugate was removed by washing 6 times over a 10 minute period with TBST. 125µl oftetramethylbenzidine (TMB) substrate solution was added to each well of the plate that was then incubated for 20 minutes in the dark at room temperature. The reaction was terminated by addition of 125µl 0.2M H2SO4 to each well. The absorbance was then measured at 450nm using a microtiter plate reader. The data are inputted to a computer program called 'KC Junior'. It is a 4 parameter fit curve and allow the calculatation of concentrations between the standard runs. This program is used to calculate the IC50s by dividing the 0ng/ml OD value by 2 and obtaining the concentration value from the curve for this OD.
In a similar manner to that described above, the wells of a 96-well microtiter plate were coated with the IgG fraction of the antiserum raised to Immunogens I, II or III. Standard solutions (JWH-250 for Immunogen III) were applied at 0, 0.625, 1.25, 2.5, 5, 10, 20 and 40ng/ml and conjugate was employed as detection reagent.
(§2) The data set our in Tables 3 and 4 are generated using antibodies raised against the indicated Immunogens in a competitive binding assay with the indicated tracers, using the indicated standards: Table 2
(§3) In order to determine the specificity of the competitive ELISAs, standard solutions of a range of structurally similar synthetic cannabinoids and their metabolites were prepared in TBST. Using the calibration curves generated and employing a single level of cross reactants, these were used to determine the cross-reactivity of each immunoassay with these substances. Table 4: Cross reactivity of the competitive ELISAs for synthetic cannabinoids and their metabolites

Antibody to Immunogen V = conditions: Cross-reactants at 100 ng/ml; 1000ng/ml; single level of cross reactants
Procedure: as §1
In a similar manner to that described above, the wells of a 96-well microtiter plate were coated with the IgG fraction of the antiserum raised to Immunogens IV, V, VII or VIII. Standard solutions (RCS-8 for Immunogen V) were prepared in TBST at 0, 1.25, 2.5, 5, 10, 20, 40 and 80ng/ml and conjugate was employed as detection reagent.
as §2, §3

Antibody to Immunogen VI = conditions: Cross-reactants at 100 ng/ml; 1000ng/ml; single level of cross reactants
Procedure: as §1, §2, §3

[2] = Cross-reactants at 100 ng/ml, 1000ng/ml, single level of cross reactants

Row | SMILES | %B/B0 [1, 2] [%] | %B/B0 (Antibody to Immunogen V) [%] | %B/B0 (Antibody to Immunogen VI) [%] | also measured
1 | O=C(O)Cc1c[nH]c2ccc(O)cc12 [5-hydroxyindole-3-acetic acid (5-HIAA), 5-hydroxyindole-3-acetic acid] | 90.54 | 92.46 | 95.75 | –
2 | CC(C)C(C)n1cc(C(=O)c2cccc3ccccc23)c2ccccc21 (single isomer, unassigned) [JWH 018 N-(1,2-dimethylpropyl) isomer] | 90.17 | 74.41 | 83.71 | –
3 | CCCCn1cc(C(=O)c2c(C)ccc3ccccc23)c2ccccc21 [JWH 073 2-methylnaphthyl analog] | 86.14 | 77.45 | 86.98 | –
4 | CCCCCCCn1cc(C(=O)c2cccc3ccccc23)c2ccccc21 [JWH-020] | 93.85 | 71.43 | 82.41 | –
5 | CCCCn1cc(C(=O)c2cccc3ccccc23)c2ccccc21 [JWH-073] | 81.25 | 66.65 | 74.80 | –
6 | CCCCCn1cc(C(=O)Cc2ccc(Cl)cc2)c2ccccc21 [JWH-206 (JWH-203 4-chloro isomer)] | 26.33 | 51.00 | 78.35 | –
7 | CCC(C)Cn1cc(C(=O)c2cccc3ccccc23)c2ccccc21 (single isomer, unassigned) [JWH-018 N-(2-methylbutyl) isomer (JWH-073 2-methylbutyl homologue)] | 92.91 | 69.13 | 80.10 | –
8 | CN1CCCCC1Cn1cc(C(=O)c2ccccc2I)c2ccccc21 (centres unmarked) [AM-223] | 95.28 | 54.35 | 79.16 | –
9 | O=C(O)CCCn1cc(C(=O)c2cccc3ccccc23)c2ccccc21 [JWH-073 N-butanoic acid metabolite] | 97.45 | 70.75 | 76.27 | –
10 | O=C(c1cccc2ccccc12)c1c[nH]c2ccccc12 [N-desalkyl JWH-018: LK1012 10CD194] | 99.73 | 81.80 | 87.49 | –
11 | COc1ccc(C(=O)c2cn(CCCCCO)c3ccccc23)cc1 [RCS-4 N-(5-hydroxypentyl) metabolite] | 72.34 | 63.69 | 3.76 | –
12 | COc1cccc(CC(=O)c2cn(CCC3CCCCC3)c3ccccc23)c1 [RCS-8 3-methoxy isomer] | 69.47 | 38.01 | 79.95 | –
13 | CCCC(C)(C)c1ccc2c(c1)OC(C)(C)[C@@H]1CC=C(C)C[C@@H]21 [JWH-133] | 97.40 | 90.40 | 93.73 | –
14 | CC(F)CCCn1cc(C(=O)c2cccc3ccccc23)c2ccccc21 (single isomer, unassigned) [AM-2201 N-(4-fluoropentyl) isomer] | 68.00 | 52.90 | 71.98 | –
15 | CCCCCn1cc(C(=O)c2ccccc2OC)c2ccccc21 [RCS-4 2-methoxy isomer] | 64.43 | 68.38 | 81.06 | –
16 | OCCc1c[nH]c2ccc(O)cc12 [5-hydroxytryptophol] | 85.39 | 90.61 | 95.67 | –
17 | CCCCCn1cc(C(=O)Cc2ccccc2OC)c2ccccc21 [JWH-250, 2-(2-methoxyphenyl)-1-(1-pentyl-1H-indol-3-yl)ethanone] | 11.91 | 8.74 | 82.17 | IC50 ([1]; standard JWH-250, standard concentration which produces 50% B/B0): 3.850 ng/mL; %B/B0 ([1]; standard curve, JWH-250 1 ng/ml (first row printed 1)): 84%; %B/B0 ([1]; standard curve, JWH-250 1 ng/ml (second row printed 1)): 70%; %B/B0 ([1]; standard curve, JWH-250 3 ng/ml): 59%; %B/B0 ([1]; standard curve, JWH-250 5 ng/ml): 43%; %B/B0 ([1]; standard curve, JWH-250 10 ng/ml): 38%; %B/B0 ([1]; standard curve, JWH-250 20 ng/ml): 29%; %B/B0 ([1]; standard curve, JWH-250 40 ng/ml): 23%
18 | CCCCCn1cc(C(=O)Cc2cccc(Cl)c2)c2ccccc21 [JWH 203 3-chloro isomer (JWH-237)] | 22.69 | 27.22 | 72.53 | –

From EP2698384A1, “Detection of synthetic cannabinoids” (priority 2012, dated 2014)
